We go through 8 compounds from ChEMBL document CHEMBL3991601, “The target landscape of clinical kinase drugs” (Science, 2017).

Assay [1] addresses Protein-tyrosine kinase 6 (Homo sapiens, UniProt Q13882).
In assay [2] the target is T1, Receptor-type tyrosine-protein kinase FLT3 (Homo sapiens, UniProt P36888).
T1 sequence (P36888 whole entry): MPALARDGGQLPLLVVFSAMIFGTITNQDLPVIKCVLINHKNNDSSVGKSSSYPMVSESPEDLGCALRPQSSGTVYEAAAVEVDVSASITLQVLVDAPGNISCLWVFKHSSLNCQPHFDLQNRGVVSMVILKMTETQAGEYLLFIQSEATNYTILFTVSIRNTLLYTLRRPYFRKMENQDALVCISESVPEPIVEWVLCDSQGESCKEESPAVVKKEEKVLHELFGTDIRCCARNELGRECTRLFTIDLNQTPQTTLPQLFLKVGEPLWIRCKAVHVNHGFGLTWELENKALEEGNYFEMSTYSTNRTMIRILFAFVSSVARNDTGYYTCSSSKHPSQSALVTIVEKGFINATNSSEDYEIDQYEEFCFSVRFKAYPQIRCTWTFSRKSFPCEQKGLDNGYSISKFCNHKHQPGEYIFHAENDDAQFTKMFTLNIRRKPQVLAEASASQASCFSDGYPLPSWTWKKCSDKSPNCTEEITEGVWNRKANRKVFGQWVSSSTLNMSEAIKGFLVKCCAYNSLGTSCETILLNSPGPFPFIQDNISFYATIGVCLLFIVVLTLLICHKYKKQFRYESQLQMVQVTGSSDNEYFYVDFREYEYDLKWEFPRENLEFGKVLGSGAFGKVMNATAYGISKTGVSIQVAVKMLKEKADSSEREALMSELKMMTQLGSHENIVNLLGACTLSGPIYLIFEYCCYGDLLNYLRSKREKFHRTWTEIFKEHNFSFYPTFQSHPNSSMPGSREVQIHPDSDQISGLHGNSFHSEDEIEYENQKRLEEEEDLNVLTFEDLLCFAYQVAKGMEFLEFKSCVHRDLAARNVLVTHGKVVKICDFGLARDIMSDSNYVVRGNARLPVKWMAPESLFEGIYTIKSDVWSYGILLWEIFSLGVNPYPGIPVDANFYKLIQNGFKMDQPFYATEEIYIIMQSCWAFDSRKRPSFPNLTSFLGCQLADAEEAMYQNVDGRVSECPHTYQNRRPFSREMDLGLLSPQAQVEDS

In assay [3] the target is Interleukin-1 receptor-associated kinase 1 (Homo sapiens, UniProt P51617).
Interleukin-1 receptor-associated kinase 1, sequence (P51617 whole entry): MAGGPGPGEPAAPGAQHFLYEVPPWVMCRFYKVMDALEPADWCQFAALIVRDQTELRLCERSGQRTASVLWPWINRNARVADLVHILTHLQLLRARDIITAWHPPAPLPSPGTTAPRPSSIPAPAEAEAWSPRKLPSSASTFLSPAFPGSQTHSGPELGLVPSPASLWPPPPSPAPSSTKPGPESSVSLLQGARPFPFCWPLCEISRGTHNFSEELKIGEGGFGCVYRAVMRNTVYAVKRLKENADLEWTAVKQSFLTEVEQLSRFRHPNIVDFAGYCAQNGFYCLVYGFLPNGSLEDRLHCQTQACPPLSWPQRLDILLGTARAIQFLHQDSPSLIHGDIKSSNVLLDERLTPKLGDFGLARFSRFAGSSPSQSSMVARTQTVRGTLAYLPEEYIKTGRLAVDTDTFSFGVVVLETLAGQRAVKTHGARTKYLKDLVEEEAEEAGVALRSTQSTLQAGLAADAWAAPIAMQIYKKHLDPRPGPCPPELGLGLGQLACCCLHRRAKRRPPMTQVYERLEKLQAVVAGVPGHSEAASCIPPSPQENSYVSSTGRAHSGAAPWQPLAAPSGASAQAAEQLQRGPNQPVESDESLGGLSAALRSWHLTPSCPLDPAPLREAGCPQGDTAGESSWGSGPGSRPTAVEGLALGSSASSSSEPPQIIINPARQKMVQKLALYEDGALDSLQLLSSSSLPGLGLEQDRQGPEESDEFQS
The target in assay [4] is Elongation factor Tu, mitochondrial (Homo sapiens, UniProt P49411).
Assay [5] addresses T2, Probable ATP-dependent RNA helicase DDX6 (Homo sapiens, UniProt P26196).
T2 sequence (P26196 whole entry): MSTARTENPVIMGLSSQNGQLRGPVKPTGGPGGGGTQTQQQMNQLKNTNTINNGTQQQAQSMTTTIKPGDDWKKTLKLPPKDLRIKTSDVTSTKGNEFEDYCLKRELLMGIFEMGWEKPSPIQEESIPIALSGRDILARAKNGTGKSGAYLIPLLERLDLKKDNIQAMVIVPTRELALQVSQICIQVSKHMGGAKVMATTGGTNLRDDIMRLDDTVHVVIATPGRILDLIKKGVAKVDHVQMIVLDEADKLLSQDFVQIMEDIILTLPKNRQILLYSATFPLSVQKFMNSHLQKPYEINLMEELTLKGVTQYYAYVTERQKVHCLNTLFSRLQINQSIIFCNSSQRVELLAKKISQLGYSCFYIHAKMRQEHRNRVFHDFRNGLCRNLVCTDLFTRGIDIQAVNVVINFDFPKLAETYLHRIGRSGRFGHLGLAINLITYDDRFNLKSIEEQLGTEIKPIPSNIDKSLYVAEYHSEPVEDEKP

The target in assay [6] is T3, Serine/threonine-protein kinase TAO1 (Homo sapiens, UniProt Q7L7X3).
T3 sequence (Q7L7X3 whole entry): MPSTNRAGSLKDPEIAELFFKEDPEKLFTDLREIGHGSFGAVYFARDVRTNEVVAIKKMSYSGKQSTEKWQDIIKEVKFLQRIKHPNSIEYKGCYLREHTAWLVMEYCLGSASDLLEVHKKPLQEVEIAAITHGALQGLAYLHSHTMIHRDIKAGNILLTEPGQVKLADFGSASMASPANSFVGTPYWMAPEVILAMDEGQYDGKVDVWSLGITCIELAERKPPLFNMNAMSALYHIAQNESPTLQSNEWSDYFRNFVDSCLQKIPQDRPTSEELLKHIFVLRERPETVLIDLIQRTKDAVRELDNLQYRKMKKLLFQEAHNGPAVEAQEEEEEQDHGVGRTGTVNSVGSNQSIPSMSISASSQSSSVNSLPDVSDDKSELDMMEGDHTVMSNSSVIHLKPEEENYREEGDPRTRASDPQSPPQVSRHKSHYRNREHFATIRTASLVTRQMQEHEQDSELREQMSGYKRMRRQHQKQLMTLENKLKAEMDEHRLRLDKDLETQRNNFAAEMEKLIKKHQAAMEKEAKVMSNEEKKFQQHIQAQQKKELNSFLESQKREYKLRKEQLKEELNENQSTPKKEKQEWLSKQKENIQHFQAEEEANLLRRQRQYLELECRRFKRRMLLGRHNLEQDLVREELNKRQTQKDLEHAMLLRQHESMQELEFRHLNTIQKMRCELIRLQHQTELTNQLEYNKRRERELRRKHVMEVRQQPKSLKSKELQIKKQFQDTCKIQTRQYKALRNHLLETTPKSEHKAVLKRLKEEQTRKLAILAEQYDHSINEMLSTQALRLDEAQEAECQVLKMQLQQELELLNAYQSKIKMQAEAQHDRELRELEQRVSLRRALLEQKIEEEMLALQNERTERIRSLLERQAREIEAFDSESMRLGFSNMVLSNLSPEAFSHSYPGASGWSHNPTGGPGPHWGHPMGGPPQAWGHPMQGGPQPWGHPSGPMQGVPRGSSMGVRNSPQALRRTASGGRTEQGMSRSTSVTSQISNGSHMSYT

Assay [7] has as its target Chromodomain-helicase-DNA-binding protein 4 (Homo sapiens, UniProt Q14839).
For assay [8], the target named is MAP kinase-activated protein kinase 2 (Homo sapiens, UniProt P49137).
MAP kinase-activated protein kinase 2, sequence (P49137 whole entry): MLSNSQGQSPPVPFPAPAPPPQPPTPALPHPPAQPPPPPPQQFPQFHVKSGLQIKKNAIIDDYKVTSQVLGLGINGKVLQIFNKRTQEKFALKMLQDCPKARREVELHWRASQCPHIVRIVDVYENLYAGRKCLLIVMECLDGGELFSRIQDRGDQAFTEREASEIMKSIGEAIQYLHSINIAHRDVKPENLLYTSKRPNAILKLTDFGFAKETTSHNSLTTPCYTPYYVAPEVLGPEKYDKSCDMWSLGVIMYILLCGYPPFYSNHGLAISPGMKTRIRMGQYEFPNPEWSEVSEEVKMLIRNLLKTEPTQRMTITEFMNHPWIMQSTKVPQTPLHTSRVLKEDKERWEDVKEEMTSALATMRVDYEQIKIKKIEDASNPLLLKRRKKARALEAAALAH

The source made the active and inactive calls. Cut-off read from the data, not from the text of the source, for most assays here: actives have a measured Kd and inactives only a lower limit. A value given as a limit tells only on which side of the number the result lay.
Note: in the data inactive means no Kd found up to 30 µM.

Chromodomain-helicase-DNA-binding protein 4, sequence (Q14839 whole entry): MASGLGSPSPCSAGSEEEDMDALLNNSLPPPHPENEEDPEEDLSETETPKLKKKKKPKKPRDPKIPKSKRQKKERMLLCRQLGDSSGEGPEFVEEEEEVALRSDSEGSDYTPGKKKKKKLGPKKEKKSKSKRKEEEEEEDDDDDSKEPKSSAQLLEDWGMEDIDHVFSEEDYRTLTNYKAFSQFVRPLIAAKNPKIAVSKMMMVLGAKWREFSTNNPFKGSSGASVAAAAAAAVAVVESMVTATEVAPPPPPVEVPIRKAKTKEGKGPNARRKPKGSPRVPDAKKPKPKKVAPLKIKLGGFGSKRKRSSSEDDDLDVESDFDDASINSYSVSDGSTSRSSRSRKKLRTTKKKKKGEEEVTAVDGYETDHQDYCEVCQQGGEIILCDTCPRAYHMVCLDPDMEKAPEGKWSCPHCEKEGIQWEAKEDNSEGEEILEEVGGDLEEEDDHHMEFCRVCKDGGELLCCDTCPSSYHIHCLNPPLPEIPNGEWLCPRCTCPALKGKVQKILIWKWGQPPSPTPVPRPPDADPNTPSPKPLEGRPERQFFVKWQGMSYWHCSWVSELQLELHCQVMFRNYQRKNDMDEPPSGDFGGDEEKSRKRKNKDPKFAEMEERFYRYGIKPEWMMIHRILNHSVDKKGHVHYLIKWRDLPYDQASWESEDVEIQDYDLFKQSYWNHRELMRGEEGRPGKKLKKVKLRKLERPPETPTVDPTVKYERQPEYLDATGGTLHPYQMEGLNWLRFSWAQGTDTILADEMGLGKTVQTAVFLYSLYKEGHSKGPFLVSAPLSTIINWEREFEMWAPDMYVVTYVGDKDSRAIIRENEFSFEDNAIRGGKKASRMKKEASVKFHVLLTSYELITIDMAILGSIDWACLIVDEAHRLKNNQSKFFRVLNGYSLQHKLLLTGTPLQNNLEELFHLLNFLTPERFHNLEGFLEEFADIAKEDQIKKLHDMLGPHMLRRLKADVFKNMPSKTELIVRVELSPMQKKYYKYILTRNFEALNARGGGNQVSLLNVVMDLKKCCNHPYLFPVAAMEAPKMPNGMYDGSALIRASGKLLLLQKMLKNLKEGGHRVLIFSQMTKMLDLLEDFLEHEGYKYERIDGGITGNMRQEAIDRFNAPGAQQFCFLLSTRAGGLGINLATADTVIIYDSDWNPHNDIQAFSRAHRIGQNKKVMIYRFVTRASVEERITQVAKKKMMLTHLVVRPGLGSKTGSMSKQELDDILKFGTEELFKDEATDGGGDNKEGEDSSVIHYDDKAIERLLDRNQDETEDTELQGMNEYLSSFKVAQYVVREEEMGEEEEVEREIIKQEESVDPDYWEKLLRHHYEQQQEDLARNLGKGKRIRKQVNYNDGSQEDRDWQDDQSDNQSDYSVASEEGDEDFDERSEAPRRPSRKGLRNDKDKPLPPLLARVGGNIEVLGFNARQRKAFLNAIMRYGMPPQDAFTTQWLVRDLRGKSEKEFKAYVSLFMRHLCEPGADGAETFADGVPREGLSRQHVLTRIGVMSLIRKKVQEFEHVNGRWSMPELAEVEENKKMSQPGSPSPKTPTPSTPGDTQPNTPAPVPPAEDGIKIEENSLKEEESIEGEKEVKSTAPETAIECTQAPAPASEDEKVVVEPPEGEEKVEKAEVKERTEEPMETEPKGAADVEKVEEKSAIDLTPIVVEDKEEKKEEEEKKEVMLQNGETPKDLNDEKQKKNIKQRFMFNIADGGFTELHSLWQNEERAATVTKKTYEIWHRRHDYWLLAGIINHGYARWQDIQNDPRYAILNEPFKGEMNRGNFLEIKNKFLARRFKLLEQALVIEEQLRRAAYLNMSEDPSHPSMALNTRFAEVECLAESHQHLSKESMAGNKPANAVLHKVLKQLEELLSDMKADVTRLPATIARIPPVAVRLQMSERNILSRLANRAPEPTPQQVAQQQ
Protein-tyrosine kinase 6, sequence (Q13882 whole entry): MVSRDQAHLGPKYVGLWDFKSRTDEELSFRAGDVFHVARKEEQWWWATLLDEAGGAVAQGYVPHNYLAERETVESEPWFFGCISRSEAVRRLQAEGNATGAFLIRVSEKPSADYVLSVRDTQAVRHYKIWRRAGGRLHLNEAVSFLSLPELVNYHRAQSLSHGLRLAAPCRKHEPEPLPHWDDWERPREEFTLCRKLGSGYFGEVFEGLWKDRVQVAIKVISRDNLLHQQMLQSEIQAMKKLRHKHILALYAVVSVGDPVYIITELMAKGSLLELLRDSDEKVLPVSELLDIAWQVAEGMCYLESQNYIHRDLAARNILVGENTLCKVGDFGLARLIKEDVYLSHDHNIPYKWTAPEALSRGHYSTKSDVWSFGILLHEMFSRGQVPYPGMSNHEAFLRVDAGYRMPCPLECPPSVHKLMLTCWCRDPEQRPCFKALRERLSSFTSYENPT

As usually defined, the Kd is the constant that tells how readily two partners part at equilibrium. Consider `CC[C@@H]1C(=O)N(C)c2cnc(Nc3ccc(C(=O)N[C@H]4CC[C@H](N5CCN(CC6CC6)CC5)CC4)cc3OC)nc2N1C(C)C` [VOLASERTIB], for which the Kd in assay [1], in assay [2], in assay [3], in assay [4], in assay [5] and in assay [6] was > 30 µM (inactive) in each case. Further, the Kd in assay [7] and in assay [8] was > 30 µM (inactive) each time.

`Cc1ccc(S(=O)(=O)Nc2nc3ccccc3nc2Nc2ccc3nsnc3c2)cc1`: the Kd in assay [1], in assay [2], in assay [3], in assay [4], in assay [5] and in assay [6] was > 30 µM (inactive) throughout. In addition, the Kd in assay [7] and in assay [8] was > 30 µM (inactive) each time.

`Cn1cc(-c2ccc(F)c(C(F)(F)F)c2)nc1C1CCN(c2ncnc3[nH]ncc23)CC1` [LY-2584702]: the Kd in assay [1], in assay [2], in assay [3], in assay [4], in assay [5] and in assay [6] was > 30 µM (inactive) in each case. Moreover, the Kd in assay [7] and in assay [8] was > 30 µM (inactive) in each case.

For `COc1cc(OC)c(/C=C/S(=O)(=O)Cc2ccc(OC)c(NCC(=O)O)c2)c(OC)c1` [RIGOSERTIB], the Kd in assay [1], in assay [2], in assay [3], in assay [4], in assay [5] and in assay [6] was > 30 µM (inactive) throughout. Also, the Kd in assay [7] and in assay [8] was > 30 µM (inactive) each time.

Consider `CO[C@H]1C[C@@H]2CC[C@@H](C)[C@@](O)(O2)C(=O)C(=O)N2CCCC[C@H]2C(=O)O[C@H]([C@H](C)C[C@@H]2CC[C@@H](OCCO)[C@H](OC)C2)CC(=O)[C@H](C)/C=C(\C)[C@@H](O)[C@@H](OC)C(=O)[C@H](C)C[C@H](C)/C=C/C=C/C=C/1C` [EVEROLIMUS], for which the Kd in assay [1], in assay [2], in assay [3], in assay [4], in assay [5] and in assay [6] was > 30 µM (inactive) each time. The Kd in assay [7] and in assay [8] was > 30 µM (inactive) throughout.

Take `CCCS(=O)(=O)Nc1ccc(F)c(C(=O)c2c[nH]c3ncc(-c4ccc(Cl)cc4)cc23)c1F` [VEMURAFENIB]: the Kd was 1.41 µM (active) in assay [1]; > 30 µM (inactive) in assay [2]; > 30 µM (inactive) in assay [3]; > 30 µM (inactive) in assay [4]; > 30 µM (inactive) in assay [5]; > 30 µM (inactive) in assay [6]. Besides, the Kd in assay [7] and in assay [8] was > 30 µM (inactive) each time.

Take `Cn1ncc(Cl)c1-c1cc(C(=O)N[C@H](CN)Cc2cccc(F)c2)sc1Cl` [AFURESERTIB]: the Kd in assay [1], in assay [2], in assay [3], in assay [4], in assay [6] and in assay [7] was > 30 µM (inactive) throughout. For the same compound, the Kd in assay [8] is > 30 µM (inactive).

As to `CNC(=O)c1ccc(-c2cnc3ncc(Cc4ccc5ncccc5c4)n3n2)cc1F` [CAPMATINIB], the Kd in assay [1], in assay [2], in assay [3], in assay [4], in assay [5] and in assay [6] was > 30 µM (inactive) in each case. Further, the Kd in assay [8] is > 30 µM (inactive).
